# How the values were obtained:
# p-MAPKAPK2 = assay: Inhibition of p-MAPKAPK2 in vitro, anisomycin-stimulated RAW 264.7 cells, ELISA; type: cell-based, murine; settings: Mus musculus, RAW264.7, read-out: IC50, inhibition of p-MAPKAPK2 in vitro
# Procedure: RAW 264.7 cells (a murine monocytic/macrophage line ATCC) are seeded at a density of 50,000 cells/well in 96-well plates with RPMI-1640 medium plus 10% fetal bovine serum (FBS) and allowed to settle and adhere to the bottom of the well for 48 hours. After reaching confluence, cells are treated for 2 hours with 10 serial dilutions of different compounds. A control compound is always included. After 2 hours, anisomicin (100 ug/ml) is added and cells are incubated for 30 minutes at 37° C. under a 5% CO2 atmosphere. Then, cells are fixed and treated with hydrogen peroxide in order to remove endogenous peroxidase. Finally, plates are blocked with FBS, washed, and an ELISA assay is carried out by using an antiphospho-MAPKAPK (Thr 334, Cell Signalling, Cat # 3041) antibody and ahP-Conjugated Secondary Antibody. This reaction is detected by using FEMTO (Pierce) which is an enhanced chemiluminiscent substrate ahP that results in rapid kinetic light output and high signal intensity.
# [1] = test system: collagen induced arthritis; assay: Rat collagen induced arthritis efficacy model; type: in vivo; settings: female Lewis rats, PO, bid for 14 days
# Procedure: Female Lewis rats (≈190 g, Charles River Labs) are immunized with Bovine type II collagen (2 mg/mL) emulsified with an equal volume of adjuvant (aluminum hydroxide). are used. The rats are immunized with approximately […] of the emulsion intradermally on the back near the base of the tail. All animals are re-immunized 7 days later according to the same protocol. The rats begin to develop arthritis (characterized by swelling and redness of one or both ankles) from 12 to 14 days after the first immunization. The rats are equally distributed into five treatment groups at the first signs of arthritis and treatment is initiated with each rat dosed bid for 14 days.
# Group 1 Vehicle (1% NaCarboxymethylcellulose+0.25% Tween 80) 1 mL, PO,
# • Bid×14 days • Group 2 Test compound, 5 mg/kg, 1 mL, PO, Bid×14 • Group 3 Test compound, 15 mg/kg, 1 mL, PO, Bid×14 • Group 4 Test compound, 30 mg/kg, 1 mL, PO, Bid×14 • Group 5 Prednisolone 10 mg/kg, 1 mL, PO, qd×14 Ankle diameter is measured with calipers 5 days a week and recorded. Data is expressed as the area under the curve (AUC) generated from the composite inflammation scores and statistical analysis performed.
# TNFα [2] = assay: Inhibition of TNFα in vivo, LPS challenged mice, plasma ELISA; settings: female Balb/c mice, p.o., LPS IP 400 μg/kg 1 hour after compound, plasma 1.5 hours after LPS
# Procedure: Compounds are administered p.o. (30, 10, 3 and 1 mg/kg) to female Balb/c mice (6 mice/dose). 1 hour following compound administration at 4 doses (P.O. at volume of 0.1 mL/mouse; vehicle: 1% NaCMC/0.25% Tween-80 in water); mice are given an IP-injection of LPS at 400 μg/kg. 1.5 hours after LPS challenging, mice are anesthetized with isoflurane and blood is taken via cardiac puncture. TNFα-levels in the plasma are determined using ELISA kit from R&D Systems and dose response ED50 is determined.
# The Threshold Minimum Effective Dose (TMED) 50 is the dose at which greater than or equal to 50% inhibition was achieved and statistically different from control/placebo.
# TNFα [3] = assay: Effect on intra-articular LPS induced TNFα in rat ankle synovial lavage fluid; type: in vivo; settings: female Lewis rats, orally, intra-articular LPS 10 μg one hour later, lavage after two hours
# Procedure: Intra-articular injection of LPS into rat ankles induces the synthesis of TNFα, which can be measured in synovial lavage fluid. High levels of TNFα are detectable within 2 hours. Since the joint is the site where arthritis develops, this model can rapidly determine whether an orally administered compound has an effect on an inflammatory response in the synovium.
# Six female Lewis rats (150-200 g) are place in each treatment group. The animals are given vehicle (1% NaCarboxymethylcellulose-0.25% Tween 80) or test compound
# (1 mg/kg, 3 mg/kg, 10 mg/kg, and 30 mg/kg) orally. One hour later, 10 μl LPS (10 μg) is administered intra-articularly into the right ankle of each rat, while the left ankle receives 10 μL of saline. After two hours, each ankle is lavaged with 100 μL of saline. The lavage is collected and stored at −80° C. • Group #1: Vehicle (1% NaCMC-0.25% Tween 80, 1 mL, PO) • Group #2: Test compound (1 mg/kg, 1 mL, PO) • Group #3: Test compound (3 mg/kg, 1 mL, PO) • Group #4: Test compound (10 mg/kg, 1 mL, PO) • Group #5: Test compound (30 mg/kg, 1 mL, PO)
# TNFα is measured with a commercially available ELISA kit (R&D, RTA00).
smiles,measurement,setting,value
"CS(=O)(=O)O.Cc1ccc(-n2nc(C(C)(C)C)cc2NC(=O)Nc2ccc(N3CCN(C(=O)c4c(F)cccc4F)CC3)nc2C)cc1 [Example 5, 1-(5-tert-Butyl-2-p-tolyl-2H-pyrazol-3-yl)-3-{6-[4-(2,6-difluoro-benzoyl)-piperazin-1-yl]-2-methyl-pyridin-3-yl}-urea methanesulfonate]",IC50,p-MAPKAPK2,4.5 nM
same,histology TMED 50,[1],5 mg/kg bid
same,"TMED50, suppression of TNFα in vivo",TNFα [2],2.24 mg/kg
same,"TMED50, inhibition of TNFα synthesis in synovial lavage fluid",TNFα [3],3.57 mg/kg

# Reference: US7652015B2, “Kinase inhibitors” (Eli Lilly and Company, priority 2006, dated 2010)
